One series relates to MC38 tumor. In words: Therapeutic efficacy in SC MC38 tumor bearing mice. The format is in vivo, C57BL/6 mice. Conditions: ˜300 mm^3, single IV at eq. 20 mg CPT/kg and 6.7 mg DOX-IND/kg. On the procedure:
In FIG. 8I-8J, 2×10^5 cells/mouse in 100 μL of serum free medium were SC injected to C57BL/6 (n=6). […] Mice survival rate was closely monitored every day.
Mouse weight was monitored every 3 days, and mice survival was monitored every day.
In FIG. 16E-161, 4×10^5 cells/mouse in 100 μL of serum free medium were SC injected to C57BU6 (n=6). Mice were IV injected once with various treatments at equivalent (eq.) 20 mg CPT/kg and 6.7 DOX-IND mg/kg when tumors grew to ˜300 mm^3. α-CD8 (BioXCell, clone 53-6.7) was IP injected at 200 μg/mouse/3 days from day 17. On day 23, mice were euthanized, and tumor tissues were isolated and equally cut into 3 pieces; one part for IHC staining for CD8, Foxp3, Calreticulin, IFN-γ, Perforin, Granzyme B, CC-3) by University of Arizona TACMASR; another two parts for Western blotting of P-S6K and RT-PCR for IL-6, respectively. Mouse weight was monitored every 3 days, and mice survival was monitored every day.
In FIG. 16K-16N, 2×10^5 cells/mouse were SC injected to C57BL/6 (n=5). When tumors reached ˜400 mm^3, mice received a single IV injection with various treatments at eq. […] Mouse weight was monitored every 3-4 days, and mice survival was monitored every day.

For the next series, the system named is CT26 tumor. As to the kind of experiment: Therapeutic efficacy in SC CT26 tumor bearing mice. Format: in vivo, BALB/c mice. As to conditions: single IV on day 9 (˜50 mm^3); free CPT 5 mg/kg, Camptothesomes and Onivyde 20 mg CPT or irinotecan/kg. On the procedure: 1×10^5 CT26 cells in 100 μL of serum free medium were SC injected in the right flank of the BALB/c mice (n=5 or 6). […] To determine the effect on survival rate in each group (n=6). Kaplan-Meier plots were used to express animal survival rate. For the efficacy study in FIG. 8D-8H, mice were euthanized on day 21; tumors were collected and soaked in 4% paraformaldehyde overnight prior to the immune phenotypic [CD8, Granzyme B, Perforin, Cleaved caspase-3 (CC-3), and IFN-γ] analysis using IHC staining by University of Arizona TACMASR.

Series [1] is described as follows: Pharmacokinetics in orthotopic CT26-Luc tumor-bearing mice. As to conditions: for AUC(0-inf) / AUC(0-t) / MRT / half-life: BALB/c, mouse, plasma, iv; for AUMC / CL / V / Vss: single IV, nanovesicles 6.7/20 mg DOX-IND/CPT/kg. On the procedure:
The various pharmacokinetics parameters were assessed by one-compartmental model using PKSolver software.

The nature of series [2]: Blood kinetics of CPT in SC CT26 tumor bearing mice.
Description: Following a single IV injection via tail vein of free CPT (5 mg CPT/kg, MTD) and different Camptothesomes (20 mg CPT/kg) to SC CT26 tumor bearing mice (n=3, ˜300 mm^3), blood was withdrawn at 0.083, 0.333, 1, 2.5, 8, 12 and 24 h and plasma (via plasma tube, BD Microtainer™) was collected and digested in methanol (90 μL methanol/10 μL serum) for HPLC analysis to measure the released CPT and SM-derived CPT conjugates. 24 h after drug IV administration, tumor tissues and major organs (heart, liver, spleen, lung, and kidneys) were collected, weighed, and then homogenized in acidified methanol (0.075 M HCl, 900 μL/100 mg tissues) followed by drug content determination using an established HPLC method. […] Mice were sacrificed at 2.5 h and 72 h post drug administration, the drug content in the collected tumor tissues and organs were processed, and analyzed as described above.
A short description of series [3]: Maximum tolerated dose (MTD) and systemic toxicity in healthy mice. Conditions: for Animal Death / Weight Loss: n=3, 14 days. Format: in vivo, BALB/c mice. On the procedure:
Changes in body weight and survival of mice were followed every 1-2 days for two weeks. […] On day 14 post drug injection, blood was withdrawn by cardiac puncture and major organs (e.g., heart, liver, and kidneys) were collected. Blood was collected in lithium heparin tubes (BD Microtainer™) followed by centrifuging at 2,000×g for 10 minutes in a refrigerated centrifuge. The supernatant (serum) was sent to University of Arizona University Animal Care Pathology Services Core for a series of serum chemistry analysis. The whole blood in dipotassium EDTA tube (BD Microtainer™) were used for leukocytes, erythrocytes, and thrombocytes analysis. Mice organs from MTD dose and vehicle control groups were placed in a 4% paraformaldehyde solution for 24 h and then sent to Tissue Acquisition and Cellular/Molecular Analysis Shared Resource (TACMASR) at University of Arizona Cancer Center for histopathological analysis.

A short description of series [4]: Lago optical imaging of in vivo tumor delivery of Cy5.5-labeled Camptothesome-4. Further details: species or system BALB/c mice. Conditions: SC CT26 tumor mice, entire monitored period (24 h). On the procedure: M ice were imaged at 0 h (prior to drug administration), and 2.5, 8, 12, and 24 h post IV injection (excitation=675 nm; emission=710 nm). At 24 h, tumors, heart, liver, spleen, lung, and kidneys were imaged using Lago optical imager. For tumor penetration investigation, tumors were frozen in an acetone/dry ice mixture prior to immunofluorescence examination. The tumor blood vessels were stained with a primary anti-CD31 (a.k.a. PECAM-1) antibody (Abcam, ab28364, 1:50), followed by an Alexa Fluor 488-conjugated secondary antibody (Abcam, ab150073, 1:400). DAPI was used to localize the cellular nuclei. Tumor tissues were cut into […] slide section by University of Arizona TACMASR and subject to the confocal laser scanning microscopy using Leica SP5-II confocal microscope (Buffalo Grove, IL) at University of Arizona Cancer Center Imaging Core.

Where [5] appears, read: Blood kinetics of CPT, free CPT 5 mg/kg.
The mark [6] stands for this setting: BALB/c, mouse, plasma, iv, 5 mg/kg.
The mark [7] stands for this setting: single IV, free CPT 5 mg/kg, Camptothesomes 20 mg CPT/kg, SC CT26 tumor mice, n=3.
The mark [8] stands for this setting: Blood kinetics of IND, IND 1.7 mg/kg.

Four compounds from patent publication US20240009321A1, “IMMUNOGENIC NANOVESICLES FOR CANCER IMMUNOTHERAPY” (Arizona Board of Regents on Behalf of the University of …, priority 2020, published 2024) can be followed below.

Consider `COc1cccc2c1C(=O)c1c(O)c3c(c(O)c1C2=O)C[C@@](O)(/C(CO)=N\NC(=O)OCCSSCCOC(=O)C(N)Cc1cn(C)c2ccccc12)C[C@@H]3O[C@H]1C[C@H](N)[C@H](O)[C@H](C)O1` (stereo in doubt) [DOX-IND, 2-((2-((1-methyl-D-tryptophyl)oxy)ethyl)disulfanyl)ethyl (Z)-2-(1-((2S,4S)-4-(((2R,4S, 5S, 6S)-4-amino-5-hydroxy-6-methyltetrahydro-2H-pyran-2-yl)oxy)-2,5,12-trihydroxy-7-methoxy-6,11-dioxo-1,2,3,4,6,11-hexahydrotetracen-2-yl)-2-hydroxyethylidene)hydrazine-1-carboxylate], for which the “tumor growth in large MC38 tumors” value in the series on MC38 tumor is recorded as “did not show significant tumor growth inhibition”.

As usually defined, the AUC(0-inf) is the area under the concentration-time curve extrapolated to infinity. Read a high AUC(0-inf) as high exposure. In general, AUC(0-t) refers to exposure summed from dosing to a finite time, without extrapolation to infinity. A low value points to less exposure. In general, MRT refers to a mean duration of stay, worked out from the concentration-time curve. A word on the half-life: it is the time in which the quantity being followed falls by half. Usually MTD stands for the highest dose tested that stayed within the study's limit of toxicity. Read a high MTD as a wide tolerated range. As to `CC[C@@]1(O)C(=O)OCc2c1cc1n(c2=O)Cc2cc3ccccc3nc2-1` [Free CPT, (S)-(+)-camptothecin], the tumor growth entry with CT26 tumor was “significant tumor reduction”. In series [1] (5 mg/kg), the AUC(0-inf) worked out at 9480 ± 880 ng·h/mL, the AUC(0-t) is 9470 ± 870 ng·h/mL, the MRT came out at 51.6 ± 2.4 min and the half-life is 3.6 ± 0.6 min. For the same compound, in series [1] (setting [5]), the AUMC stood at 8.12 ± 0.38 μg/mL*h2, the CL is reported as 10.62 ± 1.00 μg/(μg/mL)/h, the V is listed as 0.77 ± 0.23 μg/(μg/mL) and the Vss was 9.16 ± 1.30 μg/(μg/mL). For the same compound, in series [2] (BALB/c, mouse, in vivo, iv, 5 mg/kg), the half-life is 4.2 ± 0.6 min. Further, in series [2] (setting [6]), the AUC(0-inf) stood at 11200 ± 1520 ng·h/mL, the AUC(0-t) came out at 11000 ± 1550 ng·h/mL and the MRT stood at 351 ± 24.6 min. Also, the “elimination from blood / circulation half-life” value in series [2] (SC CT26 tumor mice, single IV) was “rapidly eliminated from blood”. For the same compound, in series [2] (setting [7]), the AUMC is 65.42 ± 6.99 μg/mL · h^2, the CL worked out at 36.06 ± 5.00 µg/µg/mL/h, the V came to 26.44 ± 0.27 µg/µg/mL and the Vss is 211.68 ± 38.45 µg/µg/mL. Moreover, in series [3] (Dose 5 mg/kg, single IV), the “Animal Death” value is given as 0/3 and the “Weight Loss” value was 1.82%. In addition, the “Animal Death” value in series [3] (Dose 7.5 mg/kg, single IV) was 1/3. Moreover, the “Animal Death” value in series [3] (Dose 10 mg/kg, single IV) was 1/3. For the same compound, in series [3] (Dose 12.5 mg/kg, single IV), the “Animal Death” value is 0/3 and the “Weight Loss” value is given as 25.35%. Moreover, the “systemic toxicity (serum chemistry, blood counts, H&E of organs)” value in series [3] (at MTD, day 14 post IV injection) is “severe systemic toxicities”. The same compound returned an MTD at 14 days in series [3] (mouse, in vivo, single IV, healthy BALB/c mice, 14 days, no death, not more than 15% weight loss) of 5 mg/kg.

As to “1,2-dioleoyl-sn-glycero-3-phosphoethanolamine-N-(cyanine 5.5) [Free DSPE-Cy5.5]”, the “fluorescence signal in tumors” value in series [4] is given as “no observable signal in tumors”.

In series [1] (1.7 mg/kg), `Cn1cc(C[C@@H](N)C(=O)O)c2ccccc21` [Free IND, 1-methyl-D-tryptophan] gave an AUC(0-inf) of 5670 ± 540 ng·h/mL, an AUC(0-t) of 5660 ± 530 ng·h/mL, an MRT of 24.6 ± 5.4 min and a half-life of 4.8 ± 1.2 min. In addition, in series [1] (setting [8]), the AUMC is reported as 2.38 ± 0.71 μg/mL*h2, the CL was 12.08 ± 1.17 μg/(μg/mL)/h, the V is recorded as 4.94 ± 0.63 μg/(μg/mL) and the Vss is 4.95 ± 0.63 μg/(μg/mL).
